Measurements published in patent publication US8980906B2, “Pyridonemorphinan analogs and biological activity on opioid receptors” (Purdue Pharma L.P., priority 2012, dated 2015).
Like-named read-outs stand apart in the source and are kept apart here.

Legend:
κ-opioid receptor [1] = biological target: T1, κ-opioid receptor (Homo sapiens (Human), UniProt P41145); test: κ-opioid receptor [35S]GTPγS functional assay, HEK-293 or CHO cells; type: biochemical; details: for Emax: relative to U69,593, HEK-293 or CHO cells
Experimental: κ-Opioid Receptor Functional Assay Procedures: Functional [^35S]GTPγS binding assays were conducted as follows. κ opioid receptor membrane solution was prepared by sequentially adding final concentrations of 0.026 μg/μl κ membrane protein (in-house), 10 μg/mL saponin, 3 μM GDP and 0.20 nM [^35S]GTPγS to binding buffer (100 mM NaCl, 10 mM MgCl2, 20 mM HEPES, pH 7.4) on ice. The prepared membrane solution (190 μl/well) was transferred to 96-shallow well polypropylene plates containing 10 μl of 20× concentrated stock solutions of agonist prepared in DMSO. Plates were incubated for 30 min at a temperature of about 25° C. with shaking. Reactions were terminated by rapid filtration onto 96-well Unifilter GF/B filter plates (Perkin Elmer, Shelton, Conn.) using a 96-well tissue harvester (Packard) and followed by three filtration washes with 200 μl ice-cold binding buffer (10 mM NaH2PO4, 10 mM Na2HPO4, pH 7.4). Filter plates were subsequently dried at 50° C. for 2-3 hours. Fifty μl/well scintillation cocktail (Perkin Elmer, Shelton, Conn.) was added and plates were counted in a Packard Top-Count for 1 min/well.
κ-Opioid Receptor Functional Data: κ GTP EC50 is the concentration of a compound providing 50% of the maximal response for the compound at a κ receptor.
κ GTP Emax (%) is the maximal effect elicited by a compound relative to the effect elicited by U69,593.
(§1) In TABLE 2, activity response of certain Compounds of the Invention to the μ-, δ- and κ-opioid receptors was determined as described above for functional assays using HEK-293 or CHO cells.

μ-opioid receptor [2] = biological target: T2, μ-opioid receptor (Homo sapiens (Human), UniProt P35372); test: μ-opioid receptor radioligand dose-displacement binding assay ([3H]-diprenorphine); details: binding affinity
Experimental: μ-Opioid Receptor Binding Assay Procedures: Radioligand dose-displacement binding assays for μ-opioid receptors used 0.3 nM [^3H]-diprenorphine (Perkin Elmer, Shelton, Conn.), with […] membrane protein/well in a final volume of 500 μl binding buffer (10 mM MgCl2, 1 mM EDTA, 5% DMSO, 50 mM HEPES, pH 7.4). Reactions were carried out in the absence or presence of increasing concentrations of unlabeled naloxone. All reactions were conducted in 96-deep well polypropylene plates for 2 hours at room temperature. Binding reactions were terminated by rapid filtration onto 96-well Unifilter GF/C filter plates (Perkin Elmer, Shelton, Conn.), presoaked in 0.5% polyethylenimine using a 96-well tissue harvester (Perkin Elmer, Shelton, Conn.) followed by performing three filtration washes with 500 μl of ice-cold binding buffer. Filter plates were subsequently dried at 50° C. for 2-3 hours. BetaScint scintillation cocktail (Perkin Elmer, Shelton, Conn.) was added (50 μl/well), and plates were counted using a Packard Top-Count for 1 min/well. The data were analyzed using the one-site competition curve fitting functions in GraphPad PRISM™ v. 3.0 or higher (San Diego, Calif.), or an in-house function for one-site competition curve-fitting.

κ-opioid receptor [3] = biological target: T1, κ-opioid receptor; test: κ-opioid receptor radioligand dose-displacement binding assay ([3H]-U69,593); details: binding affinity, [3H]-U69,593 displacement
Experimental: κ-Opioid Receptor Binding Assay Procedures: Membranes from HEK-293 cells, CHO or U-2 OS cells expressing the recombinant human kappa opioid receptor (κ) were prepared by lysing cells in ice cold hypotonic buffer (2.5 mM MgCl2, 50 mM HEPES, pH 7.4) (10 mL/10 cm dish) followed by homogenization with a tissue grinder/Teflon pestle. Membranes were collected by centrifugation at 30,000×g for 15 min at 4° C. and pellets were resuspended in hypotonic buffer to a final concentration of 1-3 mg/mL. Protein concentrations were determined using the BioRad protein assay reagent with bovine serum albumen as standard, Aliquots of κ receptor membranes were stored at […].
Radioligand dose displacement assays used 0.4 nM [^3H]-U69,593 (GE Healthcare, Piscataway, N.J.; 40 Ci/mmole) with 15 μg membrane protein (recombinant κ opioid receptor expressed in HEK 293 cells; in-house prep) in a final volume of 200 μl binding buffer (5% DMSO, 50 mM Trizma base, pH 7.4). Non-specific binding was determined in the presence of 10 μM unlabeled naloxone or U69,593. All reactions were performed in 96-well polypropylene plates for 1 hour at a temperature of about 25° C. Binding reactions were terminated by rapid filtration onto 96-well Unifilter GF/C filter plates (Perkin Elmer, Shelton, Conn.) presoaked in 0.5% polyethylenimine (Sigma). Harvesting was performed using a 96-well tissue harvester (Perkin Elmer, Shelton, Conn.) followed by five filtration washes with 200 μl ice-cold binding buffer. Filter plates were subsequently dried at 50° C. for 1-2 hours. Fifty μl/well scintillation cocktail (Perkin Elmer, Shelton, Conn.) was added and plates were counted in a Packard Top-Count for 1 min/well.

μ-opioid receptor [4] = biological target: T2, μ-opioid receptor; test: μ-opioid receptor [35S]GTPγS functional assay, HEK-293 or CHO cells; type: biochemical; details: for Emax: relative to DAMGO, HEK-293 or CHO cells
Experimental: μ-Opioid Receptor Functional Assay Procedures: [^35S]GTPγS functional assays were conducted using freshly thawed μ-receptor membranes prepared in-house from a cell line expressing recombinant μ opioid receptor in a HEK-293, CHO or U-2 OS cell background, or purchased from a commercial source (Perkin Elmer, Shelton, Conn.; or DiscovRx, Fremont, Calif.). Assay reactions were prepared by sequentially adding the following reagents to binding buffer (100 mM NaCl, 10 mM MgCl2, 20 mM HEPES, pH 7.4) on ice (final concentrations indicated): membrane protein (0.026 mg/mL), saponin ([…]), GDP ([…]) and [^35S]GTPγS (0.20 nM; Perkin Elmer, Shelton, Conn.). The prepared membrane solution (190 μl/well) was transferred to 96-shallow well polypropylene plates containing 10 μl of 20× concentrated stock solutions of the agonist [D-Ala^2, N-methyl-Phe^4 Gly-ol^5]-enkephalin (DAMGO) prepared in dimethyl sulfoxide (DMSO). Plates were incubated for 30 min at about 25° C. with shaking. Reactions were terminated by rapid filtration onto 96-well Unifilter GF/B filter plates (Perkin Elmer, Shelton, Conn.) using a 96-well tissue harvester (Perkin Elmer, Shelton, Conn.) followed by three filtration washes with 200 μl of ice-cold wash buffer (10 mM NaH2PO4, 10 mM Na2HPO4, pH 7.4). Filter plates were subsequently dried at 50° C. for 2-3 hours. BetaScint scintillation cocktail (Perkin Elmer, Shelton, Conn.) was added (50 μl/well) and plates were counted using a Packard Top-Count for 1 min/well. Data were analyzed using the sigmoidal dose-response curve fitting functions in GraphPad PRISM v. 3.0, or an in-house function for non-linear, sigmoidal dose-response curve-fitting.
μ-Opioid Receptor Functional Data: μ GTP EC50 is the concentration of a compound providing 50% of the maximal response for the compound at a μ-opioid receptor.
μ GTP Emax (%) is the maximal effect elicited by a compound relative to the effect elicited by DAMGO, a standard μ agonist. Generally, the μ GTP Emax (%) value measures the efficacy of a compound to treat or prevent pain or other Conditions.
as §1

κ-opioid receptor [5] = biological target: T1, κ-opioid receptor; test: κ-opioid receptor [35S]GTPγS functional assay, U-2 OS cells; type: biochemical
μ-opioid receptor [6] = biological target: T2, μ-opioid receptor; test: μ-opioid receptor [35S]GTPγS functional assay, U-2 OS cells; type: biochemical
[7] = [3H]-diprenorphine displacement, read-out: Ki (nM) Opioid Receptor μ

SMILES | EC50 (κ-opioid receptor [1]) [nM] | Emax (κ-opioid receptor [1]) [%] | Ki (μ-opioid receptor [2]; [7]) [nM] | Ki (κ-opioid receptor [3]) [nM] | EC50 (μ-opioid receptor [4]) [nM] | Emax (μ-opioid receptor [4]) [%] | Ki (μ-opioid receptor [2]; bound given in μM, read-out: Ki Opioid Receptor μ) [nM] | EC50 (κ-opioid receptor [5]) [nM] | Emax (κ-opioid receptor [5]; relative to U69,593, U-2 OS cells) [%] | EC50 (μ-opioid receptor [6]) [nM] | Emax (μ-opioid receptor [6]; relative to DAMGO, U-2 OS cells) [%]
NC(=O)c1cc2c([nH]c1=O)C[C@]13CCN(CC4CC4)[C@H](Cc4ccc(O)cc41)[C@@H]3C2 [Compound 7, (6R,6aR,12aS)-15-(cyclopropylmethyl)-2-hydroxy-10-oxo-6,6a,7,10,11,12-hexahydro-5H-6,12a-(epiminoethano)naphtho[2,1-g]quinoline-9-carboxamide] | 33.9 ± 3.73 | 31.3 ± 3.18 | 4.55 ± 1.26 | 0.19 ± 0.04 | > 20000 |  |  |  |  |  | 
NC(=O)[C@H](Cc1ccccc1)NC(=O)c1cc2c([nH]c1=O)C[C@]13CCN(CC4CC4)[C@H](Cc4ccc(O)cc41)[C@@H]3C2 [Compound 23, (6R,6aR,12aS)—N—((S)-1-amino-1-oxo-3-phenylpropan-2-yl)-15-(cyclopropylmethyl)-2-hydroxy-10-oxo-6,6a,7,10,11,12-hexahydro-5H-6,12a-(epiminoethano)naphtho[2,1-g]quinoline-9-carboxamide] | 8.35 ± 2.25 | 25.7 ± 4.18 | 1.86 ± 0.65 | 0.31 ± 0.05 | 3.19 ± 0.46 | 41.3 ± 5.04 |  |  |  |  | 
CC(C)C[C@H](NC(=O)c1cc2c([nH]c1=O)C[C@]13CCN(CC4CC4)[C@H](Cc4ccc(O)cc41)[C@@H]3C2)C(N)=O [Compound 24, (6R,6aR,12aS)—N—((S)-1-amino-4-methyl-1-oxopentan-2-yl)-15-(cyclopropylmethyl)-2-hydroxy-10-oxo-6,6a,7,10,11,12-hexahydro-5H-6,12a-(epiminoethano)naphtho[2,1-g]quinoline-9-carboxamide] | 2.54 ± 0.55 | 23 ± 2.04 | 3.95 ± 1.84 | 0.96 ± 0.1 | 5.2 ± 1.35 | 37 ± 7.02 |  |  |  |  | 
NC(=O)[C@@H]1CCCN1C(=O)c1cc2c([nH]c1=O)C[C@]13CCN(CC4CC4)[C@H](Cc4ccc(O)cc41)[C@@H]3C2 [Compound 25, (S)-1-((6R,6aR,12aS)-15-(cyclopropylmethyl)-2-hydroxy-10-oxo-6,6a,7,10,11,12-hexahydro-5H-6,12a-(epiminoethano)naphtho[2,1-g]quinoline-9-carbonyl)pyrrolidine-2-carboxamide] | 4.42 ± 0.85 | 44.7 ± 2.73 | 0.41 ± 0.05 | 0.32 ± 0.06 | 4.87 ± 0.52 | 29.3 ± 1.45 |  |  |  |  | 
NC(=O)C[C@H](NC(=O)c1cc2c([nH]c1=O)C[C@]13CCN(CC4CC4)[C@H](Cc4ccc(O)cc41)[C@@H]3C2)C(N)=O [Compound 26] | 8.87 ± 1.35 | 39 ± 2.08 | 0.71 ± 0.11 | 0.86 ± 0.23 | 7.54 ± 1.97 | 38 ± 1.15 |  |  |  |  | 
COC(=O)c1cc2c([nH]c1=O)C[C@]13CCN(C)[C@H](Cc4ccc(OC)cc41)[C@]3(O)C2 [Compound 27, (6R,6aS,12aR)-methyl 15-(methyl)-6a-hydroxy-2-methoxy-10-oxo-6,6a,7,10,11,12-hexahydro-5H-6,12a-(epiminoethano)naphtho[2,1-g]quinoline-9-carboxylate] |  |  |  | 3080 ± 128 |  |  | > 20000 |  |  |  | 
COc1ccc2c(c1)[C@]13CCN(C)[C@H](C2)[C@]1(O)Cc1cc(C(N)=O)c(=O)[nH]c1C3 [Compound 28, (6R,6aS,12aR)-15-(methyl)-6a-hydroxy-2-methoxy-10-oxo-6,6a,7,10,11,12-hexahydro-5H-6,12a-(epiminoethano)naphtho[2,1-g]quinoline-9-carboxamide] |  |  | 14400 ± 4140 | 12300 |  |  |  |  |  |  | 
CN1CC[C@]23Cc4[nH]c(=O)c(C(N)=O)cc4C[C@@]2(O)[C@H]1Cc1ccc(O)cc13 [Compound 29, (6R,6aS,12aR)-15-(methyl)-2,6a-dihydroxy-10-oxo-6,6a,7,10,11,12-hexahydro-5H-6,12a-(epiminoethano)naphtho[2,1-g]quinoline-9-carboxamide] |  |  | 651 ± 101 | 25.3 ± 4.86 |  |  |  |  |  |  | 
COC(=O)c1cc2c([nH]c1=O)C[C@]13CCN(Cc4ccccc4)[C@H](Cc4ccc(OC)cc41)[C@]3(O)C2 [Compound 30, (6R,6aS,12aR)-methyl 15-benzyl-6a-hydroxy-2-methoxy-10-oxo-6,6a,7,10,11,12-hexahydro-5H-6,12a-(epiminoethano)naphtho[2,1-g]quinoline-9-carboxylate] |  |  | 3940 ± 860 | 599 ± 90 |  |  |  | > 20000 | 1 |  | 
COc1ccc2c(c1)[C@]13CCN(Cc4ccccc4)[C@H](C2)[C@]1(O)Cc1cc(C(N)=O)c(=O)[nH]c1C3 [Compound 31, (6R,6aS,12aR)-15-benzyl-6a-hydroxy-2-methoxy-10-oxo-6,6a,7,10,11,12-hexahydro-5H-6,12a-(epiminoethano)naphtho[2,1-g]quinoline-9-carboxamide] |  |  | 5590 ± 696 | 1580 ± 308 |  |  |  |  |  | > 20000 | 10.7 ± 5.21
